Organism: Rattus norvegicus
Assay: Open TG-GATES - Regimen: Daily Repeat
Assay type: toxicity, organism-based, Sprague-Dawley
Design: regimen Daily Repeat, gender Male, age 6 weeks
Conditions: in vivo, po, 3 mg/kg, route gavage, dose level Low; for APTT / Bas / Eos / Fbg / Hb / Ht / Lym / MCH / MCHC / MCV / Mono / Neu / PT / Plat / RBC / Ret / WBC: tissue Blood; for KIDNEY_L / KIDNEY_R / KIDNEY_TOTAL: tissue Kidney; for LIVER: tissue Liver; for A/G / ALP / ALT / AST / BUN / CRE / Ca / Cl / DBIL / GLC / IP / K / LDH / Na / PL / RALB / TBIL / TC / TG / TP / gamma-GTP: tissue Plasma

C=CCO [ALLYL ALCOHOL]
TERMINAL_BW (72 h, time 3 day): 238.5 g
APTT (72 h, time 3 day): 20.1 s
Bas (72 h, time 3 day): 0%
Eos (72 h, time 3 day): 1.2%
Fbg (72 h, time 3 day): 228.4 mg/dL
Hb (72 h, time 3 day): 13.8 g/dL
Ht (72 h, time 3 day): 40%
Lym (72 h, time 3 day): 77.8%
MCH (72 h, time 3 day): 20.8 pg
MCHC (72 h, time 3 day): 34.5%
MCV (72 h, time 3 day): 60.4 fL
Mono (72 h, time 3 day): 2.8%
Neu (72 h, time 3 day): 17.8%
PT (72 h, time 3 day): 11.6 s
Plat (72 h, time 3 day): 135.9 x10_4/uL
RBC (72 h, time 3 day): 662 x10_4/ul
Ret (72 h, time 3 day): 5.2%
WBC (72 h, time 3 day): 117.9 x10_2/uL
KIDNEY_L (72 h, time 3 day): 1 g
KIDNEY_R (72 h, time 3 day): 1 g
KIDNEY_TOTAL (72 h, time 3 day): 2 g
LIVER (72 h, time 3 day): 11.5 g
A/G (72 h, time 3 day): 1.6
ALP (72 h, time 3 day): 1089.8 IU/L
ALT (72 h, time 3 day): 37.6 IU/L
AST (72 h, time 3 day): 63.8 IU/L
BUN (72 h, time 3 day): 16.2 mg/dL
CRE (72 h, time 3 day): 0.5 mg/dL
Ca (72 h, time 3 day): 10.8 mg/dL
Cl (72 h, time 3 day): 103.2 meq/L
DBIL (72 h, time 3 day): 0.076 mg/dL
GLC (72 h, time 3 day): 225.8 mg/dL
IP (72 h, time 3 day): 7.1 mg/dL
K (72 h, time 3 day): 4.3 meq/L
LDH (72 h, time 3 day): 204.6 IU/L
Na (72 h, time 3 day): 140.4 meq/L
PL (72 h, time 3 day): 153 mg/dL
RALB (72 h, time 3 day): 3.4 g/dL
TBIL (72 h, time 3 day): 0.1 mg/dL
TC (72 h, time 3 day): 79.2 mg/dL
TG (72 h, time 3 day): 91.6 mg/dL
TP (72 h, time 3 day): 5.6 g/dL
gamma-GTP (72 h, time 3 day): 0.6 IU/L
TERMINAL_BW ([…], time 7 day): 274.1 g
TERMINAL_BW ([…], time 14 day): 304.7 g
TERMINAL_BW ([…], time 28 day): 380.5 g
APTT ([…], time 7 day): 19.5 s
Bas ([…], time 7 day): 0%
Eos ([…], time 7 day): 1%
Fbg ([…], time 7 day): 220.8 mg/dL
Hb ([…], time 7 day): 13.7 g/dL
Ht ([…], time 7 day): 40.3%
Lym ([…], time 7 day): 80.6%
MCH ([…], time 7 day): 20.5 pg
MCHC ([…], time 7 day): 34%
MCV ([…], time 7 day): 60.4 fL
Mono ([…], time 7 day): 2.6%
Neu ([…], time 7 day): 15.8%
PT ([…], time 7 day): 11.9 s
Plat ([…], time 7 day): 135 x10_4/uL
RBC ([…], time 7 day): 667.2 x10_4/ul
Ret ([…], time 7 day): 5.1%
WBC ([…], time 7 day): 128.3 x10_2/uL
APTT ([…], time 14 day): 20.1 s
Bas ([…], time 14 day): 0%
Eos ([…], time 14 day): 1.4%
Fbg ([…], time 14 day): 225.8 mg/dL
Hb ([…], time 14 day): 14.5 g/dL
Ht ([…], time 14 day): 42%
Lym ([…], time 14 day): 85.4%
MCH ([…], time 14 day): 20.3 pg
MCHC ([…], time 14 day): 34.6%
MCV ([…], time 14 day): 58.7 fL
Mono ([…], time 14 day): 2.4%
Neu ([…], time 14 day): 10.6%
PT ([…], time 14 day): 12 s
Plat ([…], time 14 day): 113.9 x10_4/uL
RBC ([…], time 14 day): 715.2 x10_4/ul
Ret ([…], time 14 day): 3.5%
WBC ([…], time 14 day): 110.3 x10_2/uL
APTT ([…], time 28 day): 20.8 s
Bas ([…], time 28 day): 0%
Eos ([…], time 28 day): 1%
Fbg ([…], time 28 day): 216.8 mg/dL
Hb ([…], time 28 day): 15.2 g/dL
Ht ([…], time 28 day): 43.8%
Lym ([…], time 28 day): 80%
MCH ([…], time 28 day): 19.3 pg
MCHC ([…], time 28 day): 34.7%
MCV ([…], time 28 day): 55.5 fL
Mono ([…], time 28 day): 2.2%
Neu ([…], time 28 day): 16%
PT ([…], time 28 day): 12 s
Plat ([…], time 28 day): 106.9 x10_4/uL
RBC ([…], time 28 day): 787.6 x10_4/ul
Ret ([…], time 28 day): 2.7%
WBC ([…], time 28 day): 103.8 x10_2/uL
KIDNEY_L ([…], time 7 day): 1.1 g
KIDNEY_R ([…], time 7 day): 1.1 g
KIDNEY_TOTAL ([…], time 7 day): 2.2 g
KIDNEY_L ([…], time 14 day): 1.2 g
KIDNEY_R ([…], time 14 day): 1.1 g
KIDNEY_TOTAL ([…], time 14 day): 2.3 g
KIDNEY_L ([…], time 28 day): 1.3 g
KIDNEY_R ([…], time 28 day): 1.4 g
KIDNEY_TOTAL ([…], time 28 day): 2.7 g
LIVER ([…], time 7 day): 13 g
LIVER ([…], time 14 day): 13 g
LIVER ([…], time 28 day): 15.8 g
A/G ([…], time 7 day): 1.6
ALP ([…], time 7 day): 883.8 IU/L
ALT ([…], time 7 day): 31.2 IU/L
AST ([…], time 7 day): 61.4 IU/L
BUN ([…], time 7 day): 16.2 mg/dL
CRE ([…], time 7 day): 0.4 mg/dL
Ca ([…], time 7 day): 10.9 mg/dL
Cl ([…], time 7 day): 101.6 meq/L
DBIL ([…], time 7 day): 0.088 mg/dL
GLC ([…], time 7 day): 221.4 mg/dL
IP ([…], time 7 day): 6.9 mg/dL
K ([…], time 7 day): 4.1 meq/L
LDH ([…], time 7 day): 192 IU/L
Na ([…], time 7 day): 141 meq/L
PL ([…], time 7 day): 145.6 mg/dL
RALB ([…], time 7 day): 3.5 g/dL
TBIL ([…], time 7 day): 0.1 mg/dL
TC ([…], time 7 day): 70.4 mg/dL
TG ([…], time 7 day): 120.6 mg/dL
TP ([…], time 7 day): 5.8 g/dL
gamma-GTP ([…], time 7 day): 0.8 IU/L
A/G ([…], time 14 day): 1.5
ALP ([…], time 14 day): 736.6 IU/L
ALT ([…], time 14 day): 39 IU/L
AST ([…], time 14 day): 60.2 IU/L
BUN ([…], time 14 day): 16.2 mg/dL
CRE ([…], time 14 day): 0.4 mg/dL
Ca ([…], time 14 day): 10.6 mg/dL
Cl ([…], time 14 day): 102.6 meq/L
DBIL ([…], time 14 day): 0.07 mg/dL
GLC ([…], time 14 day): 222.2 mg/dL
IP ([…], time 14 day): 6.3 mg/dL
K ([…], time 14 day): 3.6 meq/L
LDH ([…], time 14 day): 214.8 IU/L
Na ([…], time 14 day): 141.2 meq/L
PL ([…], time 14 day): 143 mg/dL
RALB ([…], time 14 day): 3.5 g/dL
TBIL ([…], time 14 day): 0.1 mg/dL
TC ([…], time 14 day): 74.8 mg/dL
TG ([…], time 14 day): 86.6 mg/dL
TP ([…], time 14 day): 5.9 g/dL
gamma-GTP ([…], time 14 day): 1.2 IU/L
A/G ([…], time 28 day): 1.2
ALP ([…], time 28 day): 620 IU/L
ALT ([…], time 28 day): 35.8 IU/L
AST ([…], time 28 day): 57.8 IU/L
BUN ([…], time 28 day): 15.2 mg/dL
CRE ([…], time 28 day): 0.5 mg/dL
Ca ([…], time 28 day): 10.4 mg/dL
Cl ([…], time 28 day): 102.8 meq/L
DBIL ([…], time 28 day): 0.076 mg/dL
GLC ([…], time 28 day): 218.2 mg/dL
IP ([…], time 28 day): 5.8 mg/dL
K ([…], time 28 day): 3.7 meq/L
LDH ([…], time 28 day): 210.8 IU/L
Na ([…], time 28 day): 139.8 meq/L
PL ([…], time 28 day): 138.6 mg/dL
RALB ([…], time 28 day): 3.4 g/dL
TBIL ([…], time 28 day): 0.1 mg/dL
TC ([…], time 28 day): 65.8 mg/dL
TG ([…], time 28 day): 114.4 mg/dL
TP ([…], time 28 day): 6.2 g/dL
gamma-GTP ([…], time 28 day): 0.6 IU/L

From ChEMBL document CHEMBL3885861, “Open TG-GATES”
